Laboratory results taken from ChEMBL document CHEMBL1201862, “PubChem BioAssay data set” (2004).
The source made the active and inactive calls.

Experiments:
[1] = target: T1, Corticotropin-releasing factor receptor 2/Corticotropin-releasing factor-binding protein (Homo sapiens, UniProt P24387+Q13324); assay: Dose Response confirmation of uHTS hits for small molecule antagonists of the CRF-binding protein and CRF-R2 receptor complex.; type: functional; conditions: read-out: IC50_Mean
T1 sequence (Q13324 whole entry): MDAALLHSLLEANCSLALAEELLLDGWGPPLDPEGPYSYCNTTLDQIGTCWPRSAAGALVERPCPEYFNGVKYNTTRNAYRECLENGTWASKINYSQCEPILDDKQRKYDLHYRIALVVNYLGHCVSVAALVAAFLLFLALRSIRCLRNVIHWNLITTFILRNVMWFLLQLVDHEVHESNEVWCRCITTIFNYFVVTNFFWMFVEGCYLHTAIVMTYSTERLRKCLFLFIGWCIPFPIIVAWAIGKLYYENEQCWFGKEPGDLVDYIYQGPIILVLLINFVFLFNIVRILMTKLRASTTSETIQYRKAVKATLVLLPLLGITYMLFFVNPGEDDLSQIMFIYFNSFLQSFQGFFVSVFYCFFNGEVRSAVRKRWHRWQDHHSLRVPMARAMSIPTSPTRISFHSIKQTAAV
T1 sequence (P24387 whole entry): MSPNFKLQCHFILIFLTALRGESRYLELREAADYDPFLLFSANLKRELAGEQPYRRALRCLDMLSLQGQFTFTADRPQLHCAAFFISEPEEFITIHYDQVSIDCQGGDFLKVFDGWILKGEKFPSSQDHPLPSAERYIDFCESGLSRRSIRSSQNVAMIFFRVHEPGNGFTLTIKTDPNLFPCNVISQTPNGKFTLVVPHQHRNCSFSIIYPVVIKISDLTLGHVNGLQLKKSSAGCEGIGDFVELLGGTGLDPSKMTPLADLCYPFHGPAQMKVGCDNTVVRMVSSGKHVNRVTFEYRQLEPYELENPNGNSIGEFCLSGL

[2] = target: Peroxisome proliferator-activated receptor gamma/Nuclear receptor coactivator 2 (Homo sapiens, UniProt P37231); type: functional;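 also: agonist potency for raising coactivator recruitment to the receptor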
Chain of Peroxisome proliferator-activated receptor gamma/Nuclear receptor coactivator 2 (P37231 whole entry): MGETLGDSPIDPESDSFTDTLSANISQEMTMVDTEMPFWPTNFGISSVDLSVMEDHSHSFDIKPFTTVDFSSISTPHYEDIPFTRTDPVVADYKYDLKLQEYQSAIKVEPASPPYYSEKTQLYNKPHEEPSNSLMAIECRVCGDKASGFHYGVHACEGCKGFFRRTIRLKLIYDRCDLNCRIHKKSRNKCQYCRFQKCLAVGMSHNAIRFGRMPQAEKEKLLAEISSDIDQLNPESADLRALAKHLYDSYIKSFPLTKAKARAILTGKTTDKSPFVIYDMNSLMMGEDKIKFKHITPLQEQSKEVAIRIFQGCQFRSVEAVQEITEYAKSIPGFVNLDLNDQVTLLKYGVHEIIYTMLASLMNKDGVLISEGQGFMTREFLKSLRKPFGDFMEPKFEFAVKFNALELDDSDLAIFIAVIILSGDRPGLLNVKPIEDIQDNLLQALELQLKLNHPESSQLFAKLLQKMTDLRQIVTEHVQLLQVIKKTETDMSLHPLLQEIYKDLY
Chain of Peroxisome proliferator-activated receptor gamma/Nuclear receptor coactivator 2 (Q15596 whole entry, further chain): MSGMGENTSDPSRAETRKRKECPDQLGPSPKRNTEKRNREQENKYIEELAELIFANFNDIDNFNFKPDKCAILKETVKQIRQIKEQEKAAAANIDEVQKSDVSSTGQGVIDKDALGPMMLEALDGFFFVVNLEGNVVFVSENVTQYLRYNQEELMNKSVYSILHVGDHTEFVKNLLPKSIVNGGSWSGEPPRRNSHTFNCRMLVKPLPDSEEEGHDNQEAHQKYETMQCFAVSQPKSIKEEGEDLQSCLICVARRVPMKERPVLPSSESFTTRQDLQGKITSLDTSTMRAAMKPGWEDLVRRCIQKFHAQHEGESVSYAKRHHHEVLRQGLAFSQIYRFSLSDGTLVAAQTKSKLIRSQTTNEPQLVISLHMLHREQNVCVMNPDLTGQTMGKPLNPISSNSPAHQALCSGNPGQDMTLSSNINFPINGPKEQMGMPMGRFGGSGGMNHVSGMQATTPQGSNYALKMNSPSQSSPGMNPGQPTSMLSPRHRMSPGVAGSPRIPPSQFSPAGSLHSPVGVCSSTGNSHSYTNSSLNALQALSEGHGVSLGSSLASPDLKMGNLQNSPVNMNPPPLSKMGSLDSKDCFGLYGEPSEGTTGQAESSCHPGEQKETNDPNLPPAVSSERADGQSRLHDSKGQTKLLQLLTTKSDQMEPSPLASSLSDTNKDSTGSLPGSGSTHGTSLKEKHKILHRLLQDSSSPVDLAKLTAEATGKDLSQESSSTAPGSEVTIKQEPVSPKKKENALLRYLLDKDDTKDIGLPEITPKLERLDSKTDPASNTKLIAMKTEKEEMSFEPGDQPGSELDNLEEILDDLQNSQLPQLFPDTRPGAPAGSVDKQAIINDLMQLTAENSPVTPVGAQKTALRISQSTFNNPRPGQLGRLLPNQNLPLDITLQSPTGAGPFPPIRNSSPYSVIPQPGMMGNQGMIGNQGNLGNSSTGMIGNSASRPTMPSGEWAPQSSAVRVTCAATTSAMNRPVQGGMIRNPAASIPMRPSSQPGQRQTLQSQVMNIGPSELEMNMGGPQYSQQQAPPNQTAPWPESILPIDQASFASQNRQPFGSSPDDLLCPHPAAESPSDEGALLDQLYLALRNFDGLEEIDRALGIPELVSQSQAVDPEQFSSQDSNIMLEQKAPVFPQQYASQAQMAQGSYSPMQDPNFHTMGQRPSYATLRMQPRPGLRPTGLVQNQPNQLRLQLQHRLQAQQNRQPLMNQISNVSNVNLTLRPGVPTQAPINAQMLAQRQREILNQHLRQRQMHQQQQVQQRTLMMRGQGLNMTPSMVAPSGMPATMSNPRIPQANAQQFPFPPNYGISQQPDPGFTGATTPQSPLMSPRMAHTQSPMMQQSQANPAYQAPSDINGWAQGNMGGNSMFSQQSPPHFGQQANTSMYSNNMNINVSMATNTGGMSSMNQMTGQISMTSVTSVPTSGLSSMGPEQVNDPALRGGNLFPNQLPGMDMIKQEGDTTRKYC

[3] = target: T1, Corticotropin-releasing factor receptor 2/Corticotropin-releasing factor-binding protein; assay: activators of CRF receptor 2 with binding protein – uHTS hits, confirmation (AID 602473); type: functional; conditions: read-out: EC50_Mean
[4] = target: Peroxisome proliferator-activated receptor gamma/Nuclear receptor coactivator 1 (Homo sapiens, UniProt P37231); type: functional;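 also: agonist potency as compounds enhance coactivator SRC-1 recruitment to PPARgamma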
[5] = target: Peroxisome proliferator-activated receptor gamma/Nuclear receptor coactivator 3 (Homo sapiens, UniProt P37231); type: functional;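 also: agonist potency for raising coactivator recruitment to the receptor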
Chain of Peroxisome proliferator-activated receptor gamma/Nuclear receptor coactivator 3 (P37231 whole entry): as the sequence (P37231 whole entry) above
Chain of Peroxisome proliferator-activated receptor gamma/Nuclear receptor coactivator 3 (Q9Y6Q9 whole entry, further chain): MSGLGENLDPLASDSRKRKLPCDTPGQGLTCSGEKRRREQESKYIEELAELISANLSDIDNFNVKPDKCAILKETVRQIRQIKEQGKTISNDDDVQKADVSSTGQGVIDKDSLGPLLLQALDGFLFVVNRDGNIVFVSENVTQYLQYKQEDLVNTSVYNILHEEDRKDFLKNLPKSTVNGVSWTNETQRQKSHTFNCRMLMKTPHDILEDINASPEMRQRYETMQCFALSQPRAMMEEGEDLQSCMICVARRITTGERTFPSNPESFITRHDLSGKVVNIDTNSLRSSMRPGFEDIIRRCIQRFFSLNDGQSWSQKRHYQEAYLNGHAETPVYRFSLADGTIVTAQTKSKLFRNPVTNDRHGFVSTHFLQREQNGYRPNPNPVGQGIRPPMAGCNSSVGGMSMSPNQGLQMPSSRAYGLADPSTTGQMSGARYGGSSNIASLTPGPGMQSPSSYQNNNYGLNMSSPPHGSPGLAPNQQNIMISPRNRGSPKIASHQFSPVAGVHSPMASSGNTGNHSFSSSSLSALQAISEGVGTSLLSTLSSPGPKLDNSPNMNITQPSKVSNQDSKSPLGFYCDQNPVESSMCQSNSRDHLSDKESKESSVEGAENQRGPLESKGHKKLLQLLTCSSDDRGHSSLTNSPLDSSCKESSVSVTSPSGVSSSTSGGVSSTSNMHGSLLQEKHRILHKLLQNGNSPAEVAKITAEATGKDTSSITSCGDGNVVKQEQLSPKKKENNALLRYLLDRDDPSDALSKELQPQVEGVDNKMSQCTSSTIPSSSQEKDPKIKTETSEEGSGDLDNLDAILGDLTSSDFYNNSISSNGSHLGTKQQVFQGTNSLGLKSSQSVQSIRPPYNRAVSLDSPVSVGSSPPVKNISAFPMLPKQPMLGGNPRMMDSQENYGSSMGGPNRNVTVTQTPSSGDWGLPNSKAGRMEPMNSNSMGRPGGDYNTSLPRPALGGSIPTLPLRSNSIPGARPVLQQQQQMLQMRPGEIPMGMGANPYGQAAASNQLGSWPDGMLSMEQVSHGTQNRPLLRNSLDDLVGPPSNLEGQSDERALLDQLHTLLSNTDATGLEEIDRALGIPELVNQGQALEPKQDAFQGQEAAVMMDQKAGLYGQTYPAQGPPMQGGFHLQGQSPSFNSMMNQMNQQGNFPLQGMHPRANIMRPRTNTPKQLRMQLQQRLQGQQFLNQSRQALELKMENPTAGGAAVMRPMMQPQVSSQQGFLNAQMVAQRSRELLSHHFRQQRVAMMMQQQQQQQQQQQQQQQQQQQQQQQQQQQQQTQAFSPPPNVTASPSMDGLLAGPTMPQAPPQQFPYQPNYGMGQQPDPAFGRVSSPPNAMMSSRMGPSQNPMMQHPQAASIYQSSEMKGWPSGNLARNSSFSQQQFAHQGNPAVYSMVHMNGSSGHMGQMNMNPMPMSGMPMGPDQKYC

[6] = target: T2, Neuropeptide Y receptor type 2 (Homo sapiens, UniProt P49146); assay: Fluorescence-based cell-based high-throughput dose response assay for agonists of NPY-Y2. [Related pubchem assays: 1703 (Screening assay (CNGC inhibitors).), 1359 (Screening assay (NPY-Y2 potentiators or agonists).), 1304 (Screening assay (NPY-Y1 potentiators or agonists).), 1710 (Screening assay (NPY-Y2 agonists).), 1791 (Summary AID.)]; type: functional
T2 sequence (P49146 whole entry): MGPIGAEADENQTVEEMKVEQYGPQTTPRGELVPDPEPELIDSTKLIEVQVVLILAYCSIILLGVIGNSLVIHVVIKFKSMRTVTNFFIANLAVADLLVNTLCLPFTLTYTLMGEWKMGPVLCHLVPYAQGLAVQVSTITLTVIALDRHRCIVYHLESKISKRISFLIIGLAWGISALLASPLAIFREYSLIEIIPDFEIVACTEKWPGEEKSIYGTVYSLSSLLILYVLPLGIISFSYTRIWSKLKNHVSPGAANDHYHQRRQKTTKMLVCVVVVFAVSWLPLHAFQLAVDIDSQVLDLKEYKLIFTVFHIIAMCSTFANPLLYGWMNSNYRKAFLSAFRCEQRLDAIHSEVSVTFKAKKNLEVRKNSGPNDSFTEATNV

[7] = tested on: HEK293; assay: Fluorescence-based counterscreen for potentiators or agonists of NPY-Y2: cell-based high-throughput dose response assay to identify inhibitors of cyclic nucleotide gated ion channel (CNGC) activity. In this assay, the parental HEK293 cell line transfected with a cyclic-nucleotide gated ion channel (CNGC)-based cAMP sensor is used to measure inhibition of isoproterenol-induced CNGC activity by test compound.; type: functional; conditions: Homo sapiens
[8] = target: T3, Neuropeptide Y receptor type 1 (Homo sapiens, UniProt P25929); assay: Fluorescence-based counterscreen for agonists of NPY-Y2: cell-based high-throughput dose response assay for agonists of NPY-Y1.; type: functional
T3 sequence (P25929 whole entry): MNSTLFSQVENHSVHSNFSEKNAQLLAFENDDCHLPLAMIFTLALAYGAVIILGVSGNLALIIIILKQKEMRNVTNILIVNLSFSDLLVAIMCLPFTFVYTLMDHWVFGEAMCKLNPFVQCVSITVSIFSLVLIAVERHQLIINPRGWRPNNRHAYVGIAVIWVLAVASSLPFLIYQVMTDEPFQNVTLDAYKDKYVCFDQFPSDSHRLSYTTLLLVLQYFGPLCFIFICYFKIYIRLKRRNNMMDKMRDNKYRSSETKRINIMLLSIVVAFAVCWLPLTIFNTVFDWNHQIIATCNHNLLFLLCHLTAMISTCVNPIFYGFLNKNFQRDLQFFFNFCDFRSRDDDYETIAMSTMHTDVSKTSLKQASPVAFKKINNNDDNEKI

[9] = target: Voltage-dependent T-type calcium channel subunit alpha-1H (Homo sapiens, UniProt O95180); type: functional;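 also: channel activity triggered by adding a high calcium stimulation buffer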
[10] = HepG2 cell cytotoxicity, dose response, cytotoxicity control for non-replicating M. tuberculosis project (AID 489018); type: functional; conditions: Mycobacterium tuberculosis
[11] = Vero E6 cell cytotoxicity, dose response, cytotoxicity control for non-replicating M. tuberculosis project, secondary assay (AID 492998); type: functional, VeroE6; conditions: Vero C1008
[12] = THP-1 cell cytotoxicity, dose response, cytotoxicity control for non-replicating M. tuberculosis project (AID 489025); type: functional
[13] = cells; type: functional
[14] = target: G-protein coupled receptor 55 (Homo sapiens, UniProt Q9Y2T6); assay: selective activators of receptor GPR55 – imaging, U2OS cells, beta-arrestin-GFP redistribution, primary screen (AID 1961); type: functional
Chain of G-protein coupled receptor 55 (Q9Y2T6 whole entry): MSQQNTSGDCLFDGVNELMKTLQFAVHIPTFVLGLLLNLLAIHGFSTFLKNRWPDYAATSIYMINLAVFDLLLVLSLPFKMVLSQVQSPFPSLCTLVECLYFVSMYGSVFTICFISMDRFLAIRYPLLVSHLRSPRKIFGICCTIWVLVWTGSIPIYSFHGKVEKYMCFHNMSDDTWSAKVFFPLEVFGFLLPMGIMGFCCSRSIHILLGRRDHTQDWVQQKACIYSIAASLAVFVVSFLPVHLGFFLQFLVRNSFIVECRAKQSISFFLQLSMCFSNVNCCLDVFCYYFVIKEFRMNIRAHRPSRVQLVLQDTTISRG

[15] = alpha-synuclein stem-loop luciferase translation blockers – H4 neuroglioma cells, luminescence, confirmation (AID 1988); type: functional, cell-based
[16] = Luminescence Cell-Based Dose Response HTS to Identify Inhibitors of 5'UTR Stem-Loop Driven Prion Protein mRNA Translation in H4 Neuroglioblastoma Cells. [Related pubchem assays: 1827 (Project Summary), 1813 (Primary HTS)]; type: functional
[17] = HEK-293T cell viability reduction – luminescence, B-cell screen hits, cytotoxicity control for BCR NF-kB inhibitor project, dose response (AID 489021); type: functional, cell-based;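 also: HEK-293T cells carrying an NF-kB luciferase reporter; cells exposed to compound for about 14 hours before viability readout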
[18] = luciferase reporter signal suppression in cells – H4 neuroglioma cells, luminescence, dose response (AID 1990); type: functional, cell-based
[19] = tested on: HEK293; assay: EBV LMP1 TES2 canonical NF-kB signalling blockers – cell-based, HEK293, luciferase, cherry-pick, dose response (AID 588343); type: functional; conditions: Homo sapiens
[20] = tested on: HT-1080; assay: HT1080 cell viability loss – fluorescence readout (AID 620); type: functional, cell-based; conditions: Homo sapiens
[21] = target: Luciferin 4-monooxygenase (Photinus pyralis, UniProt P08659); assay: Counter Screen for Luciferase-based Assay Positives. [Related pubchem assays: 620, 618, 411 ]
Chain of Luciferin 4-monooxygenase (P08659 whole entry): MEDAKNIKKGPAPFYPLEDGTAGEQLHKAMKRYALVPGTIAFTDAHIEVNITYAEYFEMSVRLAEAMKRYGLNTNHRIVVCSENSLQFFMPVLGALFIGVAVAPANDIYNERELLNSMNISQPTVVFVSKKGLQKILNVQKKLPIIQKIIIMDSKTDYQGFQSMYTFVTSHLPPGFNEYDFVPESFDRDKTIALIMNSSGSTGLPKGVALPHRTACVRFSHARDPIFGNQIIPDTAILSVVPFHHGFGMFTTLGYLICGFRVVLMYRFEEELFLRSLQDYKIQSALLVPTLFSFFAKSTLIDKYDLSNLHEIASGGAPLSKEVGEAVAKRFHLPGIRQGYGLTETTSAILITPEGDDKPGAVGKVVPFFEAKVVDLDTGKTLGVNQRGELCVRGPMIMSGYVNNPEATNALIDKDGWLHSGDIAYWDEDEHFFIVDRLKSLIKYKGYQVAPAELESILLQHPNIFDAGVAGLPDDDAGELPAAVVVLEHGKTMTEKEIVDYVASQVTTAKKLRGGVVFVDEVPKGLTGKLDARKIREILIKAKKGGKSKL

[22] = target: T4, Ubiquitin-conjugating enzyme E2 N (Homo sapiens, UniProt P61088); type: functional;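 also: Dose-response confirmation in a TR-FRET assay detecting UBC13-driven polyubiquitin chain formation, inhibition measured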
T4 sequence (P61088 whole entry): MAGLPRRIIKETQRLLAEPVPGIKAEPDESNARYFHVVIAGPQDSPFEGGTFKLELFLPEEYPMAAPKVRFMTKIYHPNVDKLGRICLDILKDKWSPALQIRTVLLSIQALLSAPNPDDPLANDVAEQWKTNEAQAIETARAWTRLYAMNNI

[23] = target: T5, Bcl-2-like protein 10 (Homo sapiens, UniProt Q9HD36); assay: Bcl-B/TR3 peptide binding disruption – biochemical, fluorescence polarization, FITC-TR3 peptide, selectivity assay for Bfl-1 inhibitor project, primary screen (AID 748);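 also: fluorescence polarization from a fluorescein-labelled TR3 peptide binding purified Bcl-B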
T5 sequence (Q9HD36 whole entry): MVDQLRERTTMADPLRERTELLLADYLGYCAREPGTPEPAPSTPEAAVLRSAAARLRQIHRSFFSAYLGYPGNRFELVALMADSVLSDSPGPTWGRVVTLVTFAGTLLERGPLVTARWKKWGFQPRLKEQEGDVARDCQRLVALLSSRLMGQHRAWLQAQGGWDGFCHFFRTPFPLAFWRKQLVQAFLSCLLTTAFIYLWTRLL

**Q.** What does the source list for `COc1ccc(NS(=O)(=O)c2c(C)n(C)c(=O)n(C)c2=O)cc1OC`?
**A.** IC50 [1]: > 47.1 µM (inactive); EC50 [2]: > 79.4 µM (not active); EC50 [3]: > 53 µM (inactive); EC50 [4]: > 79.4 µM (not active); EC50 [5]: > 79.4 µM (not active)

**Q.** Which results are given for `CC(SC(=S)N1CCCC1)C(=O)O` (stereo not drawn)?
**A.** EC50 [6]: > 35.4 µM (not active); EC50 [7]: > 35.4 µM (not active); EC50 [8]: > 35.4 µM (not active)

**Q.** With `O=C(Nc1ccccc1Cl)c1c(F)c(F)c(F)c(F)c1F` as the compound, how does the EC50 [6] read?
**A.** > 35.4 µM (not active)

**Q.** And the EC50 [7]?
**A.** > 35.4 µM (not active)

**Q.** And the EC50 [8]?
**A.** > 35.4 µM (not active)

**Q.** With `CCC1CCCCN1S(=O)(=O)c1ccc(C(=O)Nc2nnc(-c3cccs3)o2)cc1` (stereo not drawn) as the compound, how does the EC50 [9] read?
**A.** 1.44 µM (active)

**Q.** And the CC50 [10]?
**A.** 9.09 µM (active)

**Q.** And the CC50 [11]?
**A.** 2.43 µM (active)

**Q.** And the CC50 [12]?
**A.** 3.49 µM (active)

**Q.** And the IC50 [13]?
**A.** 6.49 µM (active)

**Q.** Which EC50 [14] does the source give for `Cc1ccc2c(Cl)cc(Cl)c(OCC(=O)Nc3ccc(C)c(S(=O)(=O)N(C)C)c3)c2n1` here?
**A.** > 32 µM (inactive)

**Q.** Which results are given for `CCOC(=O)CNC(=O)CSc1nnc(NC(=O)c2ccc(C)cc2)s1`?
**A.** EC50 [15]: 7.31 µM (active); EC50 [16]: 11 µM (active); IC50 [17]: > 80 µM (inactive); EC50 [18]: 9.66 µM (active); AC50 [19]: 1.65 µM (active)

**Q.** With `COc1ccc(C(=O)Nn2c(SCC(=O)NCc3ccco3)nc3ccccc3c2=O)cc1` as the compound, how does the EC50 [20] read?
**A.** > 50 µM (not active)

**Q.** And the EC50 [15]?
**A.** 8.3 µM (active)

**Q.** And the EC50 [16]?
**A.** 8.39 µM (active)

**Q.** What about the EC50 [21] of the same compound?
**A.** 0.44 µM (active)

**Q.** What about the EC50 [18] of the same compound?
**A.** 8.65 µM (inconclusive)

**Q.** What about the IC50 [22] of the same compound?
**A.** > 20 µM (inactive)

**Q.** And the AC50 [19]?
**A.** 2.48 µM (active)

**Q.** For `c1coc(C2Nc3cccc4cccc(c34)N2)c1`, which EC50 [15] is on record?
**A.** > 120 µM (not active)

**Q.** And the IC50 [23]?
**A.** 42.8 µM (active)

**Q.** And the EC50 [16]?
**A.** > 120 µM (not active)

**Q.** What about the EC50 [18] of the same compound?
**A.** > 120 µM (not active)
